According to ChEMBL document CHEMBL1833830, “1-[2-(2-Benzoyl- and 2-benzylphenoxy)ethyl]uracils as potent anti-HIV-1 agents” (Bioorg Med Chem, 2011):
In brackets after ≈: the same amount, converted by molar mass. Activity calls are given as the source filed them. The rule behind the calls is not given here.

Legend:
[1] = tested on: Human immunodeficiency virus 1; assay: Antiviral activity against HIV1 3B infected in human CEM cells assessed as inhibition of virus-induced giant cell formation after 4 days by microscopic analysis; assay type: functional, organism-based; settings: Human immunodeficiency virus 1, 3B, CCRF-CEM, 96 h
[2] = tested on: Feline coronavirus; assay: Antiviral activity against Feline coronavirus assessed as inhibition of viral replication; assay type: functional, organism-based
[3] = tested on: Respiratory syncytial virus; assay: Antiviral activity against Respiratory syncytial virus assessed as inhibition of viral replication; assay type: functional, organism-based
[4] = Selectivity index, ratio of CC50 for human CEM cells to EC50 for HIV1 3B; assay type: toxicity, cell-based, CCRF-CEM; settings: read-out: Ratio CC50/EC50
[5] = tested on: Coxsackievirus B4; assay: Antiviral activity against Coxsackievirus B4 assessed as inhibition of viral replication; assay type: functional, organism-based
[6] = tested on: Mammalian orthoreovirus 1; assay: Antiviral activity against Reovirus 1 assessed as inhibition of viral replication; assay type: functional, organism-based
[7] = tested on: West Nile virus; assay: Antiviral activity against West Nile virus assessed as inhibition of viral replication; assay type: functional, organism-based
[8] = Cytotoxicity against human CEM cells after 4 days by MTT assay; assay type: cell-based; settings: CEM cells (CCRF-CEM)
[9] = tested on: Vesicular stomatitis virus; assay: Antiviral activity against Vesicular stomatitis virus assessed as inhibition of viral replication; assay type: functional, organism-based
[10] = Inhibition of DNA-dependent DNA polymerase activity of HIV1 reverse transcriptase p66/p66 homodimer using activated DNA and [alpha-32P]dATP after 30 mins by liquid scintillation counting; parameters: species or system Human immunodeficiency virus 1
[11] = target: Human immunodeficiency virus type 1 reverse transcriptase (Human immunodeficiency virus 1, UniProt Q72547); assay: Inhibition of RNA-dependent DNA polymerase activity of HIV1 reverse transcriptase p66/p51 heterodimer using [8-3H]dGTP as substrate after 30 mins by liquid scintillation counting
[12] = tested on: Sindbis virus; assay: Antiviral activity against Sindbis virus assessed as inhibition of viral replication; assay type: functional, organism-based
[13] = Solubility of the compound in 10% DMSO after overnight incubation by UV spectrometric analysis; assay type: physicochemical
[14] = Solubility of the compound in 0.1% DMSO after overnight incubation by UV spectrometric analysis; assay type: physicochemical
[15] = tested on: Human alphaherpesvirus 2; assay: Antiviral activity against HSV-2 assessed as inhibition of viral replication; assay type: functional, organism-based
[16] = tested on: Human respirovirus 3; assay: Antiviral activity against Parainfluenza 3 virus assessed as inhibition of viral replication; assay type: functional, organism-based
[17] = tested on: Vaccinia virus; assay: Antiviral activity against Vaccinia virus assessed as inhibition of viral replication; assay type: functional, organism-based; settings: Orthopoxvirus vaccinia
[18] = tested on: Human immunodeficiency virus 2; assay: Antiviral activity against Human immunodeficiency virus type 2 ROD infected in human CEM cells assessed as inhibition of virus-induced giant cell formation after 4 days by microscopic analysis; assay type: functional, organism-based; settings: ISOLATE ROD, CCRF-CEM
[19] = tested on: Yellow fever virus; assay: Antiviral activity against Yellow fever virus assessed as inhibition of viral replication; assay type: functional, organism-based
[20] = tested on: Rift Valley fever virus; assay: Antiviral activity against Rift Valley fever virus assessed as inhibition of viral replication; assay type: functional, organism-based
[21] = tested on: Human immunodeficiency virus 1; assay: Inhibition of DNA-dependent DNA polymerase activity of HIV1 reverse transcriptase p66/p66 homodimer using activated DNA and [alpha-32P]dATP after 30 mins by liquid scintillation counting in presence of heparin
[22] = tested on: Human immunodeficiency virus 2; assay: Antiviral activity against Human immunodeficiency virus type 2 ROD infected in human MT4 cells assessed as inhibition of virus-induced cytopathic effect after 4 days by MTT assay; assay type: functional, organism-based; settings: ISOLATE ROD
[23] = tested on: Human alphaherpesvirus 1; assay: Antiviral activity against HSV1 assessed as inhibition of viral replication; assay type: functional, organism-based
[24] = tested on: Dengue virus; assay: Antiviral activity against Dengue virus assessed as inhibition of viral replication; assay type: functional, organism-based
[25] = tested on: Punta Toro virus; assay: Antiviral activity against Punta Toro virus assessed as inhibition of viral replication; assay type: functional, organism-based
[26] = tested on: Human immunodeficiency virus 1
[27] = tested on: Human immunodeficiency virus 1; assay type: functional, organism-based; settings: Human immunodeficiency virus 1, 3B, MT4, 96 h
[28] = Inhibition of DNA-dependent DNA polymerase activity of HIV1 reverse transcriptase p66/p66 homodimer G190A mutant using activated DNA and [alpha-32P]dATP after 30 mins by liquid scintillation counting; parameters: species or system Human immunodeficiency virus 1
[29] = tested on: Human immunodeficiency virus 1; remark: listed apart in the source
[30] = tested on: Human immunodeficiency virus 1; assay: Ratio of Ki for HIV1 RT p66/p66 homodimer K103N mutant to Ki for wild-type HIV1 RT p66/p66 homodimer
[31] = in vitro; settings: human, MT4 cells
[32] = Inhibition of DNA-dependent DNA polymerase activity of HIV1 reverse transcriptase p66/p66 homodimer L100I mutant using activated DNA and [alpha-32P]dATP after 30 mins by liquid scintillation counting; parameters: species or system Human immunodeficiency virus 1
[33] = Inhibition of DNA-dependent DNA polymerase activity of HIV1 reverse transcriptase p66/p66 homodimer V106A mutant using activated DNA and [alpha-32P]dATP after 30 mins by liquid scintillation counting; parameters: species or system Human immunodeficiency virus 1
[34] = Cytotoxicity against human MT4 cells after 4 days by MTT assay; assay type: cell-based
[35] = in vitro; settings: human, MT4 cells; remark: listed apart in the source
[36] = tested on: Human immunodeficiency virus 1; assay: Ratio of Ki for HIV1 RT p66/p66 homodimer L100I mutant to Ki for wild-type HIV1 RT p66/p66 homodimer
[37] = Inhibition of DNA-dependent DNA polymerase activity of HIV1 reverse transcriptase p66/p66 homodimer Y188L mutant using activated DNA and [alpha-32P]dATP after 30 mins by liquid scintillation counting; parameters: species or system Human immunodeficiency virus 1
[38] = tested on: Human immunodeficiency virus 1; assay: Ratio of Ki for HIV1 RT p66/p66 homodimer Y188L mutant to Ki for wild-type HIV1 RT p66/p66 homodimer
[39] = tested on: Human immunodeficiency virus 1; assay: microbe, parasite or virus in culture; settings: Human immunodeficiency virus 1, 3B, MT4, 96 h
[40] = target: Human immunodeficiency virus type 1 reverse transcriptase (Human immunodeficiency virus 1, UniProt Q72547, K103N)
[41] = tested on: Human immunodeficiency virus 1; assay: Ratio of Ki for HIV1 RT p66/p66 homodimer G190A mutant to Ki for wild-type HIV1 RT p66/p66 homodimer
[42] = tested on: Human immunodeficiency virus 1; assay type: functional, organism-based; settings: Human immunodeficiency virus 1, 3B, CCRF-CEM, 96 h

| Structure (SMILES) | Activity [2] | Activity [3] | Activity [5] | Activity [6] | Activity [7] | Activity [9] | Ki [10] [µM] | Ki [11] [µM] | Activity [12] | solubility [13] [µM] | solubility [14] [µM] | Activity [15] | Activity [16] | Activity [17] | Activity [18] | Activity [19] | Activity [20] | Activity [22] | Activity [23] | Activity [24] | further results |
| --- | --- | --- | --- | --- | --- | --- | --- | --- | --- | --- | --- | --- | --- | --- | --- | --- | --- | --- | --- | --- | --- |
| Cc1cc(C)cc(Cc2cc(C)ccc2OCCn2ccc(=O)[nH]c2=O)c1 | inactive | inactive | inactive | inactive | inactive | inactive | 5.9 | 2.7 | inactive | 184 (≈ 67.2 µg/mL) | 44.4 (≈ 16.2 µg/mL) | inactive | inactive | inactive | inactive | inactive | inactive | inactive | inactive | inactive | EC50 [1]: 0.13 µM; selectivity ratio [4]: 507; CC50 at 96 h [8]: 66 µM; inhibition [21]: Active; Activity [25]: inactive |
| Cc1cc(C)cc(C(=O)c2cc(Cl)ccc2OCCn2ccc(=O)[nH]c2=O)c1 | inactive | inactive | inactive | inactive | inactive | inactive | 2.4 | 0.52 | inactive | 16.6 (≈ 6.62 µg/mL) | 3.7 (≈ 1.48 µg/mL) | inactive | inactive | inactive | inactive | inactive | inactive | inactive | inactive | inactive | Ratio Ki [26]: 3.3; EC50 [27]: > 313 µM; Ki [28]: 1 µM; Ratio Ki [29]: 23.8; Ratio Ki [30]: 13.8; selectivity ratio [31]: 1; Ki [32]: 3.3 µM; Ki [33]: > 1000 µM; CC50 at 96 h [34]: > 313 µM; selectivity ratio [35]: > 19600; Ratio Ki [36]: 1.4; Ki [37]: 10 µM; Ratio Ki [38]: 4.3; EC50 [39]: 0.016 µM; Activity [25]: inactive; Ki [40]: 33 µM |
| O=C(c1cc(Cl)cc(Cl)c1)c1cc(Cl)ccc1OCCn1ccc(=O)[nH]c1=O | inactive | inactive | inactive | inactive | inactive | inactive | 0.68 | 0.82 | inactive | 9.4 (≈ 4.13 µg/mL) | 1.9 (≈ 0.835 µg/mL) | inactive | inactive | inactive | inactive | inactive | inactive | inactive | inactive | inactive | Ratio Ki [26]: 2; EC50 [27]: 1.13 µM; Ki [28]: 1.6 µM; Ratio Ki [29]: 14.9; Ratio Ki [30]: 8; selectivity ratio [31]: > 251; Ki [32]: 1.8 µM; Ki [33]: > 1200 µM; CC50 at 96 h [34]: > 284 µM; selectivity ratio [35]: > 15800; Ratio Ki [36]: 2.5; Ki [37]: 8.4 µM; Ratio Ki [38]: 12; EC50 [39]: 0.018 µM; Ratio Ki [41]: 2.3; Activity [25]: inactive; Ki [40]: 5.6 µM |
| Cc1cc(C)cc(Cc2cc(Cl)ccc2OCCn2ccc(=O)[nH]c2=O)c1 | inactive | inactive | inactive | inactive | inactive | inactive | 5 | 2.1 | inactive | 1.7 (≈ 0.654 µg/mL) | 0.9 (≈ 0.346 µg/mL) | inactive | inactive | inactive | inactive | inactive | inactive | inactive | inactive | inactive | EC50 [1]: 0.22 µM; selectivity ratio [4]: > 909; CC50 at 96 h [8]: > 200 µM; EC50 [42]: > 200 µM; Activity [25]: inactive |
